Experimental data from the NIST ThermoML archive (doi:10.1021/je700344f).
Where “and” joins values, the source holds several entries; their conditions need not be identical. Identical values can stand only once.

Columns and labels:
[1] = 101.33 kPa, Liquid
[2] = xn = mol fraction of the nth substance listed; details: 101 kPa, Liquid

CN(C)c1ccccc1 [N,N-dimethylaniline]
[1]
Details	mass density [kg/m3]	viscosity [mPa·s]
283.15 K	969.97	1.696
293.15 K	963.01	1.439
303.15 K	956.21	1.17
313.15 K	948.34	0.981
323.15 K	940.24	0.928
333.15 K	932.71	0.911
343.15 K	924.08	0.841

CCCCCCO [hexan-1-ol]
[1]
Details	mass density	viscosity
283.15 K	828.23 kg/m3	7.459 mPa·s
293.15 K	821.01 kg/m3	5.335 mPa·s
303.15 K	815.92 kg/m3 and 813.96 kg/m3	3.763 mPa·s and 3.917 mPa·s
313.15 K	810.91 kg/m3	2.937 mPa·s
323.15 K	806.84 kg/m3 and 804.22 kg/m3	2.172 mPa·s and 2.276 mPa·s
333.15 K	802.91 kg/m3	1.654 mPa·s
343.15 K	798.64 kg/m3	1.411 mPa·s

C1COCCO1 [1,4-dioxane]
[1]
Details	mass density [kg/m3]	viscosity [mPa·s]
283.15 K	1046.91	1.59
293.15 K	1035.03	1.312
303.15 K	1022.71	1.102
313.15 K	1011.32	0.946
323.15 K	999.12	0.825
333.15 K	987.92	0.721
343.15 K	976.61	0.64

CCCCCCO [hexan-1-ol] + C1COCCO1
[2]
Details	mass density [kg/m3]	viscosity [mPa·s]
283.15 K, x2 = 0.1835	860.24	4.488
283.15 K, x2 = 0.2675	873.31	3.52
283.15 K, x2 = 0.385	896.72	2.785
283.15 K, x2 = 0.4933	916.23	2.324
283.15 K, x2 = 0.5935	938.47	2.007
283.15 K, x2 = 0.6866	957.86	1.815
283.15 K, x2 = 0.7731	981.11	1.691
283.15 K, x2 = 0.8795	1013.54	1.601
293.15 K, x2 = 0.1835	853.33	3.221
293.15 K, x2 = 0.2675	865.64	2.707
293.15 K, x2 = 0.385	889.2	2.184
293.15 K, x2 = 0.4933	903.63	1.845
293.15 K, x2 = 0.5935	929.82	1.626
293.15 K, x2 = 0.6866	951.11	1.554
293.15 K, x2 = 0.7731	973.8	1.395
293.15 K, x2 = 0.8795	1002.74	1.311
303.15 K, x2 = 0.1835	845.02	2.632
303.15 K, x2 = 0.2675	857.53	2.121
303.15 K, x2 = 0.385	879.87	1.748
303.15 K, x2 = 0.4933	898.36	1.506
303.15 K, x2 = 0.5935	920.31	1.339
303.15 K, x2 = 0.6866	941.43	1.238
303.15 K, x2 = 0.7731	963.84	1.173
303.15 K, x2 = 0.8795	990.21	–
313.15 K, x2 = 0.1835	836.88	2.285
313.15 K, x2 = 0.2675	849.44	1.705
313.15 K, x2 = 0.385	871.16	1.431
313.15 K, x2 = 0.4933	889.72	1.254
313.15 K, x2 = 0.5935	909.94	1.127
313.15 K, x2 = 0.6866	931.85	1.053
313.15 K, x2 = 0.7731	953.63	1.002
313.15 K, x2 = 0.8795	980.82	0.965
323.15 K, x2 = 0.1835	829.74	1.699
323.15 K, x2 = 0.2675	841.13	1.403
323.15 K, x2 = 0.385	864.56	1.196
323.15 K, x2 = 0.4933	880.42	1.056
323.15 K, x2 = 0.5935	900.9	0.964
323.15 K, x2 = 0.6866	921.84	0.907
323.15 K, x2 = 0.7731	943.38	0.869
323.15 K, x2 = 0.8795	971.57	0.843
333.15 K, x2 = 0.1835	821.17	1.289
333.15 K, x2 = 0.2675	833.54	1.16
333.15 K, x2 = 0.385	856.26	1.012
333.15 K, x2 = 0.4933	869.91	0.903
333.15 K, x2 = 0.5935	890.93	0.839
333.15 K, x2 = 0.6866	911.92	0.792
333.15 K, x2 = 0.7731	933.31	0.763
333.15 K, x2 = 0.8795	958.09	0.742
343.15 K, x2 = 0.1835	815.14	1.074
343.15 K, x2 = 0.2675	824.52	0.975
343.15 K, x2 = 0.385	843.77	0.863
343.15 K, x2 = 0.4933	862.93	0.786
343.15 K, x2 = 0.5935	881.04	0.732
343.15 K, x2 = 0.6866	905.05	0.748
343.15 K, x2 = 0.7731	923.91	0.678
343.15 K, x2 = 0.8795	947.05	0.662
